Patent publication US5750509A, “Amide derivatives of antibiotic A 40926” (Gruppo Lepetit S.p.A., priority 1991, dated 1998)

Tests used:
[1] = tested on: Staph. aureus L 165; experiment: MIC, microbroth dilution, Staph. aureus L 165; type: cell-based; conditions: Table II
[2] = tested on: Staph. aureus L 561; experiment: MIC, microbroth dilution, Staph. aureus L 561; type: cell-based; conditions: Table II
[3] = tested on: Staph. epidermidis L 147; experiment: MIC, microbroth dilution, Staph. epidermidis L 147; type: cell-based; conditions: Table II
[4] = tested on: Staph. epidermidis L 533; experiment: MIC, microbroth dilution, Staph. epidermidis L 533; type: cell-based; conditions: Table II
[5] = tested on: Staph. haemolyticus L 602; experiment: MIC, microbroth dilution, Staph. haemolyticus L 602; type: cell-based; conditions: Table II
[6] = tested on: Strep. pyogenes L 49; experiment: MIC, microbroth dilution, Strep. pyogenes L 49; type: cell-based; conditions: Table II
[7] = tested on: Strep. pneumoniae L 44; experiment: MIC, microbroth dilution, Strep. pneumoniae L 44; type: cell-based; conditions: Table II
[8] = tested on: Entero. faecalis L 149; experiment: MIC, microbroth dilution, Entero. faecalis L 149; type: cell-based; conditions: Table II
[9] = tested on: Entero. faecalis L 562; experiment: MIC, microbroth dilution, Entero. faecalis L 562; type: cell-based, Enterococcus faecalis
[10] = tested on: Neisseria gonorrh. L 997; experiment: MIC, microbroth dilution, Neisseria gonorrh. L 997; type: cell-based, Neisseria gonorrhoeae; conditions: Table II
[11] = tested on: Esch. coli L 47; experiment: MIC, microbroth dilution, Esch. coli L 47; type: cell-based; conditions: Table II
[12] = tested on: Pseudomonas aerug. L 4; experiment: MIC, microbroth dilution, Pseudomonas aerug. L 4; type: cell-based; conditions: Table II
[13] = tested on: Proteus vulgaris L 79; experiment: MIC, microbroth dilution, Proteus vulgaris L 79; type: cell-based; conditions: Table II
[14] = tested on: Enterococcus faecalis L 560; experiment: MIC, glycopeptide-resistant Enterococcus faecalis L 560; type: cell-based; conditions: Table III
[15] = tested on: Enterococcus faecalis L 563; experiment: MIC, glycopeptide-resistant Enterococcus faecalis L 563; type: cell-based; conditions: Table III
[16] = tested on: Enterococcus faecium L 564; experiment: MIC, glycopeptide-resistant Enterococcus faecium L 564; type: cell-based
[17] = tested on: Enterococcus faecium L 565; experiment: MIC, glycopeptide-resistant Enterococcus faecium L 565; type: cell-based
[18] = tested on: Enterococcus faecium L 569; experiment: MIC, glycopeptide-resistant Enterococcus faecium L 569; type: cell-based
[19] = tested on: Enterococcus faecium L 1650; experiment: MIC, glycopeptide-resistant Enterococcus faecium L 1650; type: cell-based
[20] = tested on: Enterococcus faecium L 1652; experiment: MIC, glycopeptide-resistant Enterococcus faecium L 1652; type: cell-based
[21] = tested on: Enterococcus faecium L 1666; experiment: MIC, glycopeptide-resistant Enterococcus faecium L 1666; type: cell-based
[22] = tested on: Enterococcus faecium L 1680; experiment: MIC, glycopeptide-resistant Enterococcus faecium L 1680; type: cell-based
[23] = tested on: Enterococcus faecium L 1681; experiment: MIC, glycopeptide-resistant Enterococcus faecium L 1681; type: cell-based
[24] = tested on: Enterococcus faecium L 1683; experiment: MIC, glycopeptide-resistant Enterococcus faecium L 1683; type: cell-based
[25] = tested on: Enterococcus faecium L 1686; experiment: MIC, glycopeptide-resistant Enterococcus faecium L 1686; type: cell-based
[26] = tested on: Strep. pyogenes C 203; experiment: experimental streptococcal septicemia in mice; type: in vivo; conditions: Strep. pyogenes C 203 septicemia, adm. route sc
From the text: The experiments have been carried out according to the procedure described by V. Arioli et al., Journal of Antibiotics 29, 511 (1976).

[27] = tested on: highly glycopeptide-resistant enterococci; experiment: in vitro activity against highly glycopeptide-resistant enterococci (summary); type: cell-based

Work on teicoplanin yielded an MIC [1] of 0.25 µg/mL, an MIC [2] of 8 µg/mL and an MIC [3] of 4 µg/mL. For the same compound, the MIC [4] was 8 µg/mL, the MIC [5] was 32 µg/mL and the MIC [6] was 0.13 µg/mL. It also gave an MIC [7] of 0.06 µg/mL, an MIC [8] of 0.13 µg/mL and an MIC ([9]; Entero. faecalis L 562, Table II) greater than 128 µg/mL. It also gave an MIC ([9]; Enterococcus faecalis L 562, Table III) greater than 128 µg/mL, an MIC [10] of 32 µg/mL and an MIC [11] greater than 128 µg/mL. It also gave an MIC [12] greater than 128 µg/mL, an MIC [13] greater than 128 µg/mL and an MIC [14] greater than 128 µg/mL. For the same compound, the MIC [15] was greater than 128 µg/mL, the MIC ([16]; Enterococcus faecium L 564, Table III) was greater than 128 µg/mL and the MIC ([17]; Enterococcus faecium L 565, Table III) was greater than 128 µg/mL. For the same compound, the MIC ([18]; Enterococcus faecium L 569, Table III) was greater than 128 µg/mL, the MIC ([19]; Enterococcus faecium L 1650, Table III) was greater than 128 µg/mL and the MIC ([20]; Enterococcus faecium L 1652, Table III) was greater than 128 µg/mL. It also gave an MIC ([21]; Enterococcus faecium L 1666, Table III) greater than 128 µg/mL, an MIC ([22]; Enterococcus faecium L 1680, Table III) greater than 128 µg/mL and an MIC ([23]; Enterococcus faecium L 1681, Table III) greater than 128 µg/mL. It also gave an MIC ([24]; Enterococcus faecium L 1683, Table III) greater than 128 µg/mL, an MIC ([25]; Enterococcus faecium L 1686, Table III) greater than 128 µg/mL and an ED50 [26] of 0.16 mg/kg. The “in vitro activity / resistance in words” value [27] was “highly resistant”.
CN[C@H](CC(C)C)C(=O)N[C@H]1C(=O)N[C@@H](CC(N)=O)C(=O)N[C@H]2C(=O)N[C@H]3C(=O)N[C@H](C(=O)N[C@H](C(=O)O)c4cc(O)cc(O)c4-c4cc3ccc4O)[C@H](O)c3ccc(c(Cl)c3)Oc3cc2cc(c3O[C@@H]2O[C@H](CO)[C@@H](O)[C@H](O)[C@H]2O[C@H]2C[C@](C)(N)[C@H](O)[C@H](C)O2)Oc2ccc(cc2Cl)[C@H]1O [VANCOMYCIN, vancomycin] showed an MIC ([9]; Enterococcus faecalis, L562) greater than 128 µg/mL, an MIC ([16]; Enterococcus faecium, L564) greater than 128 µg/mL and an MIC ([17]; Enterococcus faecium, L565) greater than 128 µg/mL. For the same compound, the MIC ([18]; Enterococcus faecium, L569) was greater than 128 µg/mL, the MIC ([19]; Enterococcus faecium, L1650) was greater than 128 µg/mL and the MIC ([20]; Enterococcus faecium, L1652) was greater than 128 µg/mL. For the same compound, the MIC ([21]; Enterococcus faecium, L1666) was greater than 128 µg/mL, the MIC ([22]; Enterococcus faecium, L1680) was greater than 128 µg/mL and the MIC ([23]; Enterococcus faecium, L1681) was greater than 128 µg/mL. For the same compound, the MIC ([24]; Enterococcus faecium, L1683) was greater than 128 µg/mL, the MIC ([25]; Enterococcus faecium, L1686) was greater than 128 µg/mL and the “in vitro activity / resistance in words” value [27] was “highly resistant”.
